Laboratory results published in ChEMBL document CHEMBL1821555, “Identification of a series of 4-[3-(quinolin-2-yl)-1,2,4-oxadiazol-5-yl]piperazinyl ureas as potent smoothened antagonist hedgehog pathway inhibitors” (Bioorg Med Chem Lett, 2011).

Tests used:
Protein smoothened [1] = biological target: T1, Protein smoothened (Homo sapiens, UniProt Q99835); assay: Displacement of Bodipy-labelled cyclopamine from Smo expressed in COS-1 cells in presence of 2% FBS after 4 to 6 hrs by FACS flow cytometric analysis; format: cell-based
T1 sequence (Q99835 whole entry): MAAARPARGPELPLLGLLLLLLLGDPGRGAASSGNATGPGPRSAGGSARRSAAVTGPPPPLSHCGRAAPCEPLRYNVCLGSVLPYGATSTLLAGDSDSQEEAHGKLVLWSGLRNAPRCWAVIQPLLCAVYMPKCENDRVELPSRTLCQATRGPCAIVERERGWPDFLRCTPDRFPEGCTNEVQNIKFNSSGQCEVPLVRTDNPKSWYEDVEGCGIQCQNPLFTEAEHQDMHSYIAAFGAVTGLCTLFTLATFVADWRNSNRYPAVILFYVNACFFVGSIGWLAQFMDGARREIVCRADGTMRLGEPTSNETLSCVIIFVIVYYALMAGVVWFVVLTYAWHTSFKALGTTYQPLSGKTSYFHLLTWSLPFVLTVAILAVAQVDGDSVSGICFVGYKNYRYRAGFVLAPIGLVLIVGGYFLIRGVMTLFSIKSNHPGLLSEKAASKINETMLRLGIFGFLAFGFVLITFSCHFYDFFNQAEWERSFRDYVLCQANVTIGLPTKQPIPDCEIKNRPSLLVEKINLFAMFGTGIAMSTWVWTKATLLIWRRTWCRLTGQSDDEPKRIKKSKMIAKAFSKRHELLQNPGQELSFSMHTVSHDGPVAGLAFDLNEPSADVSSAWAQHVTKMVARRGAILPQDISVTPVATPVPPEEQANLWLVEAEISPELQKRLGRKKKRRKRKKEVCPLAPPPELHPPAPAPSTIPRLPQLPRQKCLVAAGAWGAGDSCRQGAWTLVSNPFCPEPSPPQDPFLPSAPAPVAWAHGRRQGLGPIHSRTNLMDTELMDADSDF

Protein smoothened [2] = biological target: T1, Protein smoothened; assay: Inhibition of Bodipy-labelled cyclopamine binding to Smo expressed in COS-1 cells in presence of 20% NHS after 4 to 6 hrs by FACS flow cytometric analysis; format: cell-based
Shh Light II [3] = assay: Inhibition of Shh signaling in mouse Shh-light2 cells at 10 uM by Gli-dependent firefly luciferase reporter gene assay; format: functional
Protein smoothened [4] = biological target: T1, Protein smoothened; assay: Inhibition of Bodipy-labelled cyclopamine binding to Smo expressed in COS-1 cells at 10 uM in presence of 2% FBS after 4 to 6 hrs by FACS flow cytometric analysis; format: cell-based
Protein smoothened [5] = biological target: T1, Protein smoothened; assay: Inhibition of Bodipy-labelled cyclopamine binding to Smo expressed in COS-1 cells at 4 uM in presence of 2% FBS after 4 to 6 hrs by FACS flow cytometric analysis; format: cell-based
Shh Light II [6] = assay: Inhibition of Shh signaling in mouse Shh-light2 cells by Gli-dependent firefly luciferase reporter gene assay; format: functional, cell-based
Protein smoothened [7] = biological target: T1, Protein smoothened; assay: Inhibition of Bodipy-labelled cyclopamine binding to Smo expressed in COS-1 cells at 2.5 uM in presence of 2% FBS after 4 to 6 hrs by FACS flow cytometric analysis; format: cell-based
[8] = Intrinsic clearance in rat liver microsomes assessed per mg of protein; format: ADME, Microsome
[9] = Intrinsic clearance in dog liver microsomes assessed per mg of protein; format: ADME, Canis lupus familiaris, Microsome
[10] = Intrinsic clearance in human liver microsomes assessed per mg of protein; format: ADME, Microsome
[11] = Clearance in rat; format: ADME, organism-based; conditions: in vivo
[12] = Lipophilicity, log D of the compound; format: physicochemical; conditions: octanol/water
[13] = Oral bioavailability in rat; format: ADME, organism-based; conditions: in vivo
[14] = Terminal half life in rat; format: ADME, organism-based; conditions: in vivo, read-out: beta t1/2 (converted)
[15] = Clearance in dog; format: ADME, organism-based, Canis lupus familiaris; conditions: in vivo
[16] = Half life in dog; format: ADME, organism-based, Canis lupus familiaris; conditions: in vivo
[17] = Inhibition of cytochrome P450 at 30 uM; format: ADME
[18] = Induction of cytochrome P450 at 30 uM; format: ADME
[19] = biological target: Potassium voltage-gated channel subfamily H member 2 (hERG), Homo sapiens; assay: Inhibition of human ERG

IC50 (Protein smoothened [1]) [nM] | IC50 (Protein smoothened [2]) [nM] | IC50 (Shh Light II [6]) [nM] | SMILES | further results
> 2500 | > 2500 | – | COc1cc2ccccc2nc1-c1noc(C2CCN(C(=O)Nc3ccccc3Cl)CC2)n1 | –
320 | > 2500 | – | N#Cc1ccc(Cl)c(NC(=O)N2CCC(c3nc(-c4ccc5ccccc5n4)no3)CC2)c1 | –
790 | – | 680 | CC1CN(C(=O)Nc2ccccc2Cl)CCC1c1nc(-c2ccc3ccccc3n2)no1 (mixture of isomers) | –
480 | 1500 | – | O=C(NC1CCC(F)(F)CC1)N1CCC(c2nc(-c3ccc4ccccc4n3)no2)CC1 | –
1500 | – | 3000 | Cc1noc(C)c1NC(=O)N1CCC(c2nc(-c3ccc4ccccc4n3)no2)CC1 | –
1300 | – | 1400 | O=C(Nc1cccc2cccnc12)N1CCC(c2nc(-c3ccc4ccccc4n3)no2)CC1 | –
750 | – | 410 | O=C(NCC1CCC1)N1CCC(c2nc(-c3ccc4ccccc4n3)no2)CC1 | –

The remaining lines, values behind:

SMILES | IC50 (Protein smoothened [1]) [nM] | IC50 (Protein smoothened [2]) [nM] | IC50 (Shh Light II [6]) [nM] | further results
COc1cc(-c2noc(C3CCN(C(=O)Nc4ccccc4Cl)CC3)n2)nc2ccccc12 | > 2500 | > 2500 | – | –
COc1ccccc1NC(=O)N1CCC(c2nc(-c3ccc4ccccc4n3)no2)C1 (stereo not drawn) | – | – | – | inhibition at 10 µM (Shh Light II [3]): 15%; inhibition (Protein smoothened [4]): 38%
COc1ccc(NC(=O)N2CCC(c3nc(-c4ccc5ccccc5n4)no3)CC2)cc1 | > 2500 | – | – | inhibition (Protein smoothened [5]): 68%
COc1ccccc1OC(=O)N1CCC(c2nc(-c3ccc4ccccc4n3)no2)CC1 | 110 | – | 250 | –
O=C(NC1CCNCC1)N1CCC(c2nc(-c3ccc4ccccc4n3)no2)CC1 | 2900 | 3700 | 2500 | –
CC1(c2nc(-c3ccc4ccccc4n3)no2)CCN(C(=O)Nc2ccccc2Cl)CC1 | 6000 | – | 2500 | –
Cc1ccccc1NC(=O)N1CCC(c2nc(-c3ccc4ccccc4n3)no2)CC1 | 510 | – | 440 | –
Cc1cccnc1-c1noc(C2CCN(C(=O)Nc3ccccc3Cl)CC2)n1 | – | – | – | inhibition (Protein smoothened [7]): 63%
O=C(Nc1cccnc1Cl)N1CCC(c2nc(-c3ccc4ccccc4n3)no2)CC1 | 1500 | – | 1600 | –
COc1ccccc1NC(=O)N1CCC(c2noc(-c3ccc4ccccc4n3)n2)CC1 | 15000 | – | 2400 | –
O=C(NC1CCCCC1)N1CCN(c2nc(-c3ccc4ccccc4n3)no2)CC1 | 45 | 180 | 53 | microsomal CLint [8]: 189 µL/min/mg; microsomal CLint [9]: 54 µL/min/mg; microsomal CLint [10]: 60 µL/min/mg; clearance [11]: 54 mL/min/kg; logD [12]: 2.76; bioavailability [13]: 24%; half-life [14]: 1.1 h; clearance [15]: 16 mL/min/kg; half-life [16]: 1.4 h; inhibition (INH) [17]: Not Active; Activity [18]: Not Active; IC50 [19]: > 30000 nM
COc1cccc(NC(=O)N2CCC(c3nc(-c4ccc5ccccc5n4)no3)CC2)c1 | 220 | – | 410 | –
O=C(Nc1ccccc1C(F)(F)F)N1CCC(c2nc(-c3ccc4ccccc4n3)no2)CC1 | 340 | – | 700 | –
O=C(NC1CCC(F)(F)CC1)N1CCN(c2nc(-c3ccc4ccccc4n3)no2)CC1 | – | 39 | 5 | microsomal CLint [8]: 61 µL/min/mg; microsomal CLint [10]: 8 µL/min/mg; clearance [11]: 32 mL/min/kg; logD [12]: 2.67; half-life [14]: 1.3 h; clearance [15]: 20 mL/min/kg; half-life [16]: 1.1 h; inhibition (INH) [17]: Not Active; Activity [18]: Not Active
CC(=O)N1CCC(NC(=O)N2CCC(c3nc(-c4ccc5ccccc5n4)no3)CC2)CC1 | 2300 | 1300 | 500 | –
O=C(Nc1ncccc1Cl)N1CCC(c2nc(-c3ccc4ccccc4n3)no2)CC1 | > 2500 | – | 2800 | –
CS(=O)(=O)c1ccc(Cl)c(NC(=O)N2CCC(c3nc(-c4ccc5ccccc5n4)no3)CC2)c1 | 1200 | > 2500 | – | –
C[C@H]1C[C@H](c2nc(-c3ccc4ccccc4n3)no2)CCN1C(=O)Nc1ccccc1Cl | 640 | – | 900 | –
